The values below come from patent US20080057136A1, “Disinfecting Composition and Methods of Making and Using Same” (priority 2003, published 2008).

The subject of one experiment is T. rubrum. Put plainly: MIC and MBC determination by doubling dilutions (Study 509-102). The class given is cell-based, Trichophyton rubrum. An excerpt:
(§1) Table 2 below indicates the stock dilutions for each test agent, and a breakdown of the resulting concentrations for each of the doubling dilutions performed is summarized in Table 3.
(§2) From the stock dilutions, an initial 1:10 dilution was made (representing tube 1), followed by doubling dilutions (tubes 2-12), as detailed in Table 3.

For experiment [1], the system named is T. rubrum ATCC 28188. As to the kind of experiment: NCCLS broth microdilution MIC and MFC (Example 11). The class given is cell-based, Trichophyton rubrum. Conditions: Example 11; for fungicidal activity: MFC within 1 doubling dilution of the MIC. For orientation: Broth dilution looks for growth in wells or tubes with falling amounts of substance.
Experimental: (§3) Strains of C. albicans (ATCC 10231) and T. rubrum (ATCC 28188) were tested in this study. Strains were removed from frozen stock and subcultured twice on blood agar to ensure that the strains had optimal growth and metabolic status before testing. Strains were tested by NCCLS broth microdilution (M27-A2, 2002) and challenged with AMC solution and its individual components […] ), and isopropanol. Amphotericin B, fluconazole, terbinafine, and Hibiclens were added as comparator compounds. […] Microtiter panels were created on the day of MIC testing. A 50 μl aliquot of RPMI 1640 was delivered to each well except those in column one of the microtiter panel. The working solution of AMC and each of its components, and comparative agents were delivered to the designated wells in column one; AMC, components, and comparators were serially diluted across the panel. A 50 μl aliquot of fungal suspension was then added to each well on the microtiter panel, using a new pipette tip for each aliquot. […] For amphotericin B, the endpoint was read as the complete inhibition of growth. […] MFCs were performed to determine the concentration at which ≧99% of the starting fungal inoculum was killed. […] After incubation, colony counts for each panel well plated were recorded. […] The endpoint for amphotericin B was read as complete inhibition of growth.
Experiment [2] has as its system C. albicans ATCC 10231. Put plainly: NCCLS broth microdilution MIC and MFC (Example 10). The class given is cell-based, Candida albicans. The conditions noted are these: for MIC: amphotericin B complete inhibition; for fungicidal activity: MFC within 1 doubling dilution of the MIC.
Experimental: (§4) Strains of E. coli (ATCC 11229), D. aeruginosa (ATCC 15442), S. aureus (ATCC 25923), S. epidermidis (ATCC 12228), S. pyogenes (ATCC 19615), C. albicans (ATCC 10231), and T. rubrum (ATCC 28188) were used as “challenge microorganisms” in this study. Strains were removed from frozen stock and subcultured twice on blood agar to ensure that the strains had optimal growth and metabolic status before testing.
(§5) Amphotericin B, fluconazole, and Hibiclens were added as comparative agents in the fungal panels.
(§6) For testing purposes, AMC, AMC components, and Hibiclens were diluted to 50% of the working solution to cover the proposed AMC use dilution of 20%.
(§7) Microtiter panels were created on the day of MIC testing. A 50 μl aliquot of Mueller-Hinton broth (for bacterial strains) or RPMI 1640 (for fungal strains) was delivered to each well, except those in column one of the microtiter panel. The working solution of AMC and each of its components, and comparative agents were delivered to the designated wells in column one. AMC, components, and comparators were serially diluted across the panel. A 50 μl aliquot of bacterial or fungal suspension was then added to each well on the microtiter panel, using a new pipette tip for each aliquot. Panels were incubated at 35° C. for 16-20 h for the E. coli, P. aeruginosa, and S. aureus strains, 20-24 h for the S. pyogenes strain, and 48 h for the C. albicans strain. T. rubrum panels were incubated for 3 to 4 days before MICs were read. […] Fungal MICs (%) were read using an 80% reduction in the growth endpoint relative to the turbidity of the growth control for AMC, its components, and fluconazole. For amphotericin B, the endpoint was read as the complete inhibition of growth.
(§8) MFCs were determined in a similar manner.
(§9) The endpoint for amphotericin B was read as complete inhibition of growth. The MIC % is expressed as g/100 ml or ml/100 ml. […] The MFC % is expressed as g/100 ml or ml/100 ml.
The test system of experiment [3] is C. albicans ATCC 10231. Put plainly: NCCLS broth microdilution MIC and MFC (Example 11). The conditions noted are these: for MIC: amphotericin B complete inhibition, terbinafine 50%/90%; for fungicidal activity: MFC within 1 doubling dilution of the MIC. It counts as cell-based, Candida albicans.
Experimental: as §3
In experiment [4] the test system is Trichophyton rubrum (ATCC 28188). As to the kind of experiment: Time-Kill test (Example 9). It counts as cell-based. The conditions noted are these: Study 506-103.
Experimental: (§10) A panel of “challenge microorganisms,” including select bacteria, yeast, and fungi was used to assess the disinfecting properties of test compounds, e.g., AMC (DPT Laboratories). […] The procedure was based on the ASTM procedure entitled, “Standard Test Method for the Assessment of Microbial Activity of Test Materials Using Time-Kill Procedure.”
(§11) A single lot of test material was prepared at various concentrations, along with multiple compounds prepared in various concentrations and combinations. These test materials were tested in duplicate against various bacteria, yeast and fungi. To minimize potential buffer interference and to minimize reduction of antimicrobial activity, the volume of the inoculum added to the test material was maintained at, or below, 1% of the total volume of the test. Samples were removed at various contact times. Serial dilutions were performed, and duplicate aliquots were plated. The plates were then incubated, and the average colony forming units (CFU) recovered per milliliter were determined for each contact time. The contact times for the test compounds with S. aureus, E. coli, P. aeruginosa, and C. albicans were 30 sec, 1 min, and 5 min. The contact times for the test compounds with B. subtilis were 1 and 10 min, 1 h, 2 h, 3 h, and 24 h. The contact times for the test compounds with T. rubrum were 30 sec, 1 min and 10 min. The contact temperature was ambient room temperature (20-21° C.).
The fungus, T. rubrum, was inoculated onto Emmon's agar (EA) and incubated at 25-30° C. for 10-15 days. The mycelial mats from mature cultures were removed from the surface of at least 5 plates and macerated with sterile saline (SS) in a sterile glass tissue grinder. The suspension was filtered through sterile glass wool to remove the hyphae.
The density of the conidial suspension was determined by serially diluting the prepared culture in BPDW. Aliquots from selected dilutions were plated on duplicate EA plates. The plates were incubated for 3-5 days at 25-30° C. and then each plate was examined for enumeration.
The suspension was stored at 2-10° C. for 4 weeks before use. On the day of testing, the suspension was adjusted to yield approximately 5.0×10^8 CFU by dilution with BPDW.
(§12) Compliant with the ASTM procedure cited above, the challenge microorganism was added to the test material by dispensing 99 ml of the test material into two sterile flasks, each containing a stir bar. The reaction flasks were allowed to equilibrate to the test temperature for at least 10 minutes. The flasks were placed in water baths on stir plates and maintained at the test temperature with stirring. A 1 ml aliquot of the prepared inoculum of the challenge microorganism was added to each flask to begin the contact period. At each contact time, 1 ml aliquot samples were removed and added to tubes containing 9 ml PBDW+. Serial 10-fold dilutions of each sample were then prepared in PBDW dilution blanks. Duplicate aliquots from selected dilutions were plated using the appropriate agar.
(§13) Upon completion of all contact periods, all plates were inverted and incubated for the appropriate time and temperature as follows: bacteria and yeast were incubated over 2 nights at 37° C.±2° C., and the fungus was incubated for at least 5 nights at 25-30° C. Following incubation, all plates were removed, the colonies were counted and the CFU recovered per ml at each contact time were calculated.
Experiment [5] deals with T. rubrum ATCC 28188. As to the kind of experiment: NCCLS broth microdilution MIC and MFC (Example 10). The class given is cell-based, Trichophyton rubrum. Conditions: Example 10; for MIC: 80% reduction in growth, amphotericin B complete inhibition; for MFC: 99.9% inhibition of growth; for fungicidal activity: MFC within 1 doubling dilution of the MIC.
Experimental: as §4, §5, §6, §7, §8, §9
For experiment [6], the system named is Candida albicans (ATCC 10231). Put plainly: Time-Kill test (Example 9). It counts as cell-based. The conditions noted are these: Study 506-103.
Experimental: as §10, §11
Bacteria and C. albicans from stock cultures were transferred into trypticase soya broth (TSB) and incubated for 18-24 hours at 37° C.±2° C. A second transfer was made onto Trypticase Soya Agar (TSA). The plate was removed from incubation and the growth was washed from the agar surface with Butterfield's Phosphate Buffered Dilution Water (PBDW). The microbe concentration was measured using a spectrophotometric technique well-known in the art. The suspension was subsequently adjusted to contain approximately 10^8 colony forming units (CFU) per ml. • 2.
as §12, §13
For each challenge microorganism, 99 ml of PBDW was dispensed into a sterile flask, and a 1 ml aliquot of prepared inoculum was added to the flask with stirring.
The subject of a further experiment is C. albicans. Put plainly: MIC and MBC determination by doubling dilutions (Study 509-102). The class given is cell-based. Conditions: Candida albicans, Inoculum Counts: 6.6 × 10^5.
Excerpt: as §1, §2

Where [7] appears, read: Study 509-102, Inoculum Counts: 3.6 × 10^8.
[8] abbreviates: Trichophyton rubrum, ATCC28188, read-out: MFC.
[9] abbreviates: Candida albicans, ATCC10231, 80% reduction in growth, read-out: MIC.
Where [10] appears, read: Candida albicans, ATCC10231, read-out: MFC.
The mark [11] stands for this setting: Trichophyton rubrum, Study 509-102, Inoculum Counts: 3.6 × 10^8.

Values after ≈ are worked out from the molar mass of the structure shown. Values joined by “and” are separate entries in the source; they are usually repeats but may differ in a detail not shown here. Equal values may be shown once.

For the molecule `C[C@@H]1[C@H](O)[C@@H](C)/C=C/C=C/C=C/C=C/C=C/C=C/C=C/[C@H](O[C@@H]2O[C@H](C)[C@@H](O)[C@H](N)[C@@H]2O)C[C@@H]2O[C@](O)(C[C@@H](O)C[C@@H](O)[C@H](O)CC[C@@H](O)C[C@@H](O)CC(=O)O[C@H]1C)C[C@H](O)[C@H]2C(=O)O` [Amphotericin B], the “MBC (ppm)” value against T. rubrum (setting [7]) is more than 0.25 ppm. The “MIC (ppm)” value against T. rubrum (setting [7]) is on record as more than 0.25 ppm. Besides, in the experiment on T. rubrum (Table 23, row head prints μg/mL), the “MIC Against T. rubrum” value is more than 0.25 µg/mL. The “MFC” value worked out at 0.5 µg/mL (≈ 0.541 µM) in the experiment on T. rubrum ATCC 28188 [1], 0.12 µg/mL (≈ 0.13 µM) in the experiment on C. albicans ATCC 10231 [2] (99.9% inhibition of growth), 0.5 µg/mL (≈ 0.541 µM) in the experiment with C. albicans ATCC 10231 [3] and 0.5 µg/mL (≈ 0.541 µM) with T. rubrum ATCC 28188 [5]. In addition, the “MIC” value in the experiment on T. rubrum ATCC 28188 [1] (80% reduction in growth, amphotericin B complete inhibition) came to 0.25 µg/mL (≈ 0.271 µM); with C. albicans ATCC 10231 [2] (80% reduction in growth) it was 0.12 µg/mL (≈ 0.13 µM); against C. albicans ATCC 10231 [3] (80% reduction in growth) it was 0.25 µg/mL (≈ 0.271 µM); with T. rubrum ATCC 28188 [5], 0.25 µg/mL (≈ 0.271 µM). In addition, the fungicidal activity entry in the experiment on T. rubrum ATCC 28188 [1] is “Fungicidal activity was observed”; in the experiment on C. albicans ATCC 10231 [2], “Fungal activity”; in the experiment with C. albicans ATCC 10231 [3], “Fungicidal activity”; in the experiment on T. rubrum ATCC 28188 [5], “Fungicidal activity was observed”. Also, the “Log10 Reduction” value in experiment [4] (30 sec. contact) was 1.0 Log10; in experiment [4] (60 sec. contact), 1.2 Log10 and 1.1 Log10; in experiment [4] (10 min. contact), 1.0 Log10. In addition, the “CFUs recovered per milliliter of T. rubrum culture” value in experiment [4] (30 sec. contact, initial 1.0 × 10^6 CFU/ml, Amphotericin B 2.5 mg/L) is 1.0 × 10^5 CFU/ml and 1.1 × 10^5 CFU/ml; in experiment [4] (60 sec. contact), 6.9 × 10^4 CFU/ml and 8.7 × 10^4 CFU/ml.
`OC(Cn1cncn1)(Cn1cncn1)c1ccc(F)cc1F` [Fluconazole]: the “Log10 Reduction” value in experiment [6] (30 sec. contact), in experiment [6] (60 sec. contact) and in experiment [6] (5 min. contact) was less than 1.0 Log10 each time. Further, the “CFUs recovered per milliliter of C. albicans culture” value is reported as 3.0 × 10^6 CFU/ml in experiment [6] (30 sec. contact, initial 3.0 × 10^7 CFU/ml, Fluconazole 2 mg/ml); 3.0 × 10^6 CFU/ml in experiment [6] (60 sec. contact); 3.0 × 10^6 CFU/ml in experiment [6] (5 min. contact). For the same molecule, the fungicidal activity entry in the experiment on T. rubrum ATCC 28188 [1] is listed as “did not demonstrate fungicidal activity”; in the experiment with C. albicans ATCC 10231 [2], “not considered fungicidal”; in the experiment with C. albicans ATCC 10231 [3] it was “Fungicidal activity”; in the experiment with T. rubrum ATCC 28188 [5], “did not demonstrate fungicidal activity”. In addition, the MIC with T. rubrum ATCC 28188 [1] (Trichophyton rubrum, ATCC28188, 80% reduction in growth, amphotericin B complete inhibition, read-out: MIC) was 2 µg/mL (≈ 6.53 µM); in the experiment with C. albicans ATCC 10231 [2] (setting [9]), 0.5 µg/mL (≈ 1.63 µM); with C. albicans ATCC 10231 [3] (setting [9]) it was 0.5 µg/mL (≈ 1.63 µM); in the experiment with T. rubrum ATCC 28188 [5] (Trichophyton rubrum, ATCC28188, read-out: MIC) it was 2 µg/mL (≈ 6.53 µM). Also, the MFC came to 64 µg/mL (≈ 209 µM) with T. rubrum ATCC 28188 [1] (setting [8]); 2 µg/mL (≈ 6.53 µM) in the experiment on C. albicans ATCC 10231 [2] (Candida albicans, ATCC10231, 99.9% inhibition of growth, read-out: MFC); 1 µg/mL (≈ 3.27 µM) in the experiment with C. albicans ATCC 10231 [3] (setting [10]); 8 µg/mL (≈ 26.1 µM) with T. rubrum ATCC 28188 [5] (setting [8]).
On to `Clc1ccc(COC(Cn2ccnc2)c2ccc(Cl)cc2Cl)c(Cl)c1` (centres unmarked) [Miconazole], for which, in the experiment with T. rubrum (setting [11]), the MBC was 0.25 µg/mL (≈ 0.601 µM) and the MIC came to 0.25 µg/mL (≈ 0.601 µM). In the experiment on C. albicans, this molecule showed an MBC of 2 µg/mL (≈ 4.81 µM) and an MIC of 2 µg/mL (≈ 4.81 µM).
With `CN(C/C=C/C#CC(C)(C)C)Cc1cccc2ccccc12` [Terbinafine], the fungicidal activity result was “did not demonstrate fungicidal activity” in the experiment on T. rubrum ATCC 28188 [1] and “Fungicidal activity” in the experiment on C. albicans ATCC 10231 [3]. In addition, the MIC in the experiment on T. rubrum ATCC 28188 [1] (Trichophyton rubrum, ATCC28188, read-out: MIC (μg/ml), read at 50% inhibition of growth, terbinafine, 50% reading) is 0.008 µg/mL (≈ 0.0275 µM); with T. rubrum ATCC 28188 [1] (Trichophyton rubrum, ATCC28188, read-out: MIC (μg/ml), read at 90% inhibition of growth, terbinafine, 90% reading), 0.032 µg/mL (≈ 0.11 µM); against C. albicans ATCC 10231 [3] (80% reduction in growth), more than 0.5 µg/mL; in the experiment on C. albicans ATCC 10231 [3] (setting [9]) it was more than 0.5 µg/mL. Moreover, the MFC was 0.125 µg/mL (≈ 0.429 µM) in the experiment on T. rubrum ATCC 28188 [1] (setting [8]) and more than 0.5 µg/mL in the experiment with C. albicans ATCC 10231 [3] (setting [10]).
